Data reported in article PMC9745799, “Polymyxin Stereochemistry and Its Role in Antibacterial Activity and Outer Membrane Disruption” (ACS Infectious Diseases, 2022).
≈ marks a conversion by molar mass, not a printed value. Where “and” joins values, the source holds several entries; their conditions need not be identical. Equal values may be shown once. Positions of bridges follow the written chain, without caps; N, C: chain ends. Non-standard residues stand in square brackets, D forms with d. Residues, ends and D or L forms follow the SMILES beside them. *: point of attachment. dDab = NCC[C@@H](N)C(=O)O; Heptanoyl = CCCCCCC(=O)*; Dab = NCC[C@H](N)C(=O)O

Legend:
A. baumannii ATCC 19606 = type: cell-based; conditions: ATCC 19606, 22 h
Method: (§1) MICs of compounds were determined following CLSI guidelines using the microbroth dilution method in polypropylene plates. Selected Gram-negative bacterial strains (see Table S2 for strain sources) were taken from glycerol stocks and grown overnight on blood agar. Individual colonies were selected and grown in Tryptic Soy Broth (TSB) to an OD600 of 0.5. Compounds were diluted in Mueller Hinton Broth (MHB) supplemented with Mg^2+ and Ca^2+ at final concentrations of 12 and 20 mg/L, respectively (CAMHB). 50 μL was used for each well, and compounds were assessed in triplicates. Bacterial culture was diluted in CAMHB to 10^6 CFU/mL, yielding 5 × 10^5 CFU/mL upon addition of 50 μL of culture to 50 μL of compound solution. Positive and negative (sterility) controls were present on each plate. Plates were sealed with a semipermeable membrane and incubated for 22 h (A. baumannii) or 18 h (other strains) under shaking at 37 °C.

E. coli ATCC 25922 = type: cell-based; conditions: ATCC 25922, 18 h
Method: as §1

E. coli BW25113 = type: cell-based; conditions: BW25113, 18 h
Method: as §1

E. coli JW3594 (ΔwaaD) = type: cell-based; conditions: truncated LPS, CLSI microbroth dilution, CAMHB, 18 h, 37 °C, triplicate
Method: as §1

E. coli JW3596 (ΔwaaC) = type: cell-based; conditions: truncated LPS, CLSI microbroth dilution, CAMHB, 18 h, 37 °C, triplicate
Method: as §1

E. coli mcr-1 = type: cell-based; conditions: CLSI microbroth dilution, CAMHB, 18 h, 37 °C, triplicate
Method: as §1

K. pneumoniae ATCC 13883 = type: cell-based; conditions: ATCC 13883, 18 h
Method: as §1

P. aeruginosa 2018-007 = type: cell-based; conditions: 2018-007, 18 h
Method: as §1

P. aeruginosa ATCC 10145 = type: cell-based; conditions: ATCC 10145, 18 h
Method: as §1

P. aeruginosa ATCC 27853 = type: cell-based; conditions: ATCC 27853, 18 h
Method: as §1

P. aeruginosa NRZ03961 = type: cell-based; conditions: NRZ03961, 18 h
Method: as §1

[1] = tested on: polymyxin-resistant (mcr-1 positive) E. coli; test: microbe, parasite or virus in culture; type: cell-based
Method: (§2) Selected Gram-negative bacterial strains were taken from glycerol stocks and grown overnight on blood agar. A single colony was inoculated in TSB broth at 37 °C until an optical density of 0.5 at 600 nm (OD600) was reached. The bacterial suspension was diluted in freshly prepared CAMHB to 10^6 CFU/mL. Compounds were diluted along the plate, using 25 μL of CAMHB for each dilution. Antibiotic concentrations were prepared separately in a multiwell reservoir, including a control without antibiotic. Of each antibiotic stock, 25 μL was added to three columns to obtain triplicates for every condition. To each 50 μL containing well was then added 50 μL of the 10^6 CFU/mL bacterial suspension, and the plates were sealed with breathable seals. After incubation for 18 h at 37 °C while shaking, the seals were removed and the density of the bacterial suspensions was measured at 600 nm (OD600) using a Tecan Spark plate reader. The OD600 values were transformed to a 2D gradient with the negative control as the minimum and the positive control as the maximum. The FICI was calculated using the following equation: [drawing 1] with MSCant and MSCcomp indicating the optimal synergistic concentration of antibiotic and compound and MICant and MICcomp, the corresponding MICs of the individual compounds. An FICI ≤ 0.5 indicates synergy.[48]

[2] = tested on: polymyxin-sensitive E. coli ATCC 25922; test: microbe, parasite or virus in culture; type: cell-based
Method: as §2

[3] = tested on: E. coli ATCC 25922 (smooth LPS); test: NPN uptake assay (outer membrane disruption); type: cell-based; conditions: NPN fluorescence after 1 h at RT, 5 mM HEPES pH 7.2 + 20 mM glucose, triplicates, result in words
Method: (§3) Bacteria were taken from glycerol stocks and grown in TSB overnight. Cultures were diluted either 50 or 100 times in Lysogeny Broth (LB) and grown at 37 °C to an OD600 of 0.5. Test compounds were prepared in HEPES buffer (5 mM, pH 7.2 + 20 mM glucose) and serially diluted (25 μL per well) on 1/2 the area of black 96-well plates with a transparent bottom. N-Phenyl-1-naphthylamine (NPN) was dissolved in acetone (0.5 mM) and diluted to 40 μM in HEPES buffer (5 mM, pH 7.2 + 20 mM glucose). 25 μL of the NPN solution was added to each well. The bacterial suspension was spin down (1000g, 10 min), and the remaining cell pellet was resuspended in half the original volume of HEPES buffer (5 mM, pH 7.2 + 20 mM glucose). 50 μL of bacterial suspension was added to each well. NPN fluorescence was measured after 1 h of incubation at RT with λex 355 ± 20 nm and λem 420 ± 20 nm. The measured fluorescence signal was corrected for NPN fluorescence in the absence of compounds (bacteria in buffer + NPN) and presented as relative fluorescence units (RFUs).

[4] = tested on: E. coli BW25113 (rough LPS); test: NPN uptake assay (outer membrane disruption); type: cell-based; conditions: NPN fluorescence after 1 h at RT, 5 mM HEPES pH 7.2 + 20 mM glucose, triplicates, result in words
Method: as §3

[5] = tested on: polymyxin-resistant, mcr-1 positive E. coli; test: NPN uptake assay (outer membrane disruption); type: cell-based; conditions: E. coli mcr-1 positive; NPN fluorescence after 1 h at RT, highest concentration tested 32 μg/mL, triplicates; result in words
Method: as §3

[6] = tested on: LPS from E. coli (O55:B5); test: Isothermal titration calorimetry (ITC), LPS binding; conditions: compound (1 mM) into LPS (20 µM), 20 mM HEPES pH 7, 37 °C, mean and SD of three experiments
Method: Stock solutions of LPS (10 mg/mL, 0.5 mM) were prepared in 20 mM HEPES at pH 7 by suspension, sonication, and temperature cycling between 4 and 60 °C and stored overnight prior to use. LPS from E. coli (O55:B5) was used. Lipopeptide solutions (1 mM in 20 mM HEPES, pH 7) were titrated into a suspension of LPS (0.020 mM) in the same buffer. Control titrations included the titration of peptide into buffer and buffer into the LPS suspension to determine the corresponding heat of dilution. All binding experiments were performed using a MicroCal PEAQ-ITC Automated microcalorimeter (Malvern Panalytical Ltd., Malvern, UK). The samples were equilibrated to 37 °C prior to measurement. The titrations were conducted at 37 °C under constant stirring at 750 rpm. Each experiment consisted of an initial injection of 0.3 μL followed by 25 separate injections of 1.5 μL into the sample cell of 200 μL. The time between each injection was 180 s, and the measurements were performed with the reference power set at 5 μcal s^–1 and the feedback mode set at “low”. For all calculations performed, an estimated molecular weight of 20 kDa for LPS was applied. The calorimetric data thus obtained were analyzed using MicroCal PEAQ-ITC Analysis Software Version 1.20 (Malvern Panalytical Ltd., Malvern, UK), where the integrated heat signal is corrected for the heat of dilution of the titrant.

[7] = E. coli ATCC 25922, checkerboard, substance alone

Q: `CCCCCCC(=O)N[C@@H](CCN)C(=O)N[C@H](C(=O)N[C@@H](CCN)C(=O)N[C@H]1CCNC(=O)[C@H]([C@@H](C)O)NC(=O)[C@H](CCN)NC(=O)[C@H](CCN)NC(=O)[C@H](CC(C)C)NC(=O)[C@@H](Cc2ccccc2)NC(=O)[C@H](CCN)NC1=O)[C@@H](C)O` [PmxB4, polymyxin B4] (Heptanoyl-[Dab]T[Dab][Dab][Dab][dF]L[Dab][Dab]T; lactam 4-C) was tested. Which MIC (A. baumannii ATCC 19606) did it give?
A: Its MIC is 0.5 µg/mL (≈ 0.425 µM).

Q: And the MIC (E. coli ATCC 25922)?
A: Its MIC is 0.25 µg/mL (≈ 0.213 µM).

Q: What about the MIC (E. coli BW25113) of the same molecule?
A: The MIC was 0.5 µg/mL (≈ 0.425 µM).

Q: What about the MIC (E. coli JW3594 (ΔwaaD)) of the same molecule?
A: The MIC was 0.06 µg/mL (≈ 0.051 µM).

Q: And the MIC (E. coli JW3596 (ΔwaaC))?
A: The MIC was 0.06 µg/mL (≈ 0.051 µM).

Q: What about the MIC (E. coli mcr-1) of the same molecule?
A: Its MIC is 4 µg/mL (≈ 3.4 µM).

Q: What about the MIC (K. pneumoniae ATCC 13883) of the same molecule?
A: Its MIC is 0.125 µg/mL (≈ 0.106 µM).

Q: And the MIC (P. aeruginosa 2018-007)?
A: The MIC was 0.5 µg/mL (≈ 0.425 µM).

Q: And the MIC (P. aeruginosa ATCC 10145)?
A: The MIC was 0.25 µg/mL (≈ 0.213 µM).

Q: And the MIC (P. aeruginosa ATCC 27853)?
A: Its MIC is 0.25 µg/mL (≈ 0.213 µM).

Q: And the MIC (P. aeruginosa NRZ03961)?
A: The MIC was 0.25 µg/mL (≈ 0.213 µM).

Q: What about the MIC alone ([1]; E. coli mcr-1, checkerboard, substance alone) of the same molecule?
A: Its MIC alone is 8 µg/mL.

Q: What about the FICI ([1]; E. coli mcr-1, combination with rifampicin, checkerboard, CAMHB, 18 h, 37 °C, OD600, FICI ≤ 0.5 indicates synergy) of the same molecule?
A: The FICI was 0.16 and 0.163.

Q: And the MIC alone ([2]; ATCC 25922, 18 h)?
A: The MIC alone was 1 µg/mL.

Q: What about the MIC alone [2, 7] of the same molecule?
A: Its MIC alone is 2 µg/mL.

Q: What about the “OM disruption (NPN uptake)” value [3] of the same molecule?
A: Its value is “potent OM disruption”.

Q: And the “OM disruption (NPN uptake)” value [4]?
A: Its value is “potent OM disruption”.

Q: What about the “OM disruption (NPN uptake)” value [5] of the same molecule?
A: The value was “most effective OM disruption”.

Q: And the “ΔΔH, maximum enthalpy observed after subtraction of dilution control” value [6]?
A: Its value is -7.86 ± 0.10 kcal/mol.

Q: What does the source list for `CC(C)C[C@H]1NC(=O)[C@H](Cc2ccccc2)NC(=O)[C@@H](CCN)NC(=O)[C@H](NC(=O)[C@@H](CCN)NC(=O)[C@H](N)[C@H](C)O)CCNC(=O)[C@@H]([C@H](C)O)NC(=O)[C@@H](CCN)NC(=O)[C@@H](CCN)NC1=O` [ent-PMBN] (H-[dT][dDab][dDab][dDab]F[dL][dDab][dDab][dT]; lactam 3-C)?
A: MIC alone ([2]; ATCC 25922, 18 h): ≥ 256 µg/mL; OM disruption (NPN uptake) [3]: weak OM disruption; OM disruption (NPN uptake) [4]: higher degree of OM perturbation; ΔΔH, maximum enthalpy observed after subtraction of dilution control [6]: -4.91 ± 0.03 kcal/mol; ΔG, fitted parameter for single site binding ([6]; one-site model): -7.69 ± 0.06 kcal/mol; ΔH, fitted parameter for single site binding ([6]; one-site model): -5.2 ± 0.03 kcal/mol; Kd ([6]; one-site model, read-out: KD, fitted parameter for single site binding): 3.9 ± 0.4 µM

Q: What does the source list for `CO[C@H]1/C=C/O[C@@]2(C)Oc3c(C)c(O)c4c(O)c(c(/C=N/N5CCN(C)CC5)c(O)c4c3C2=O)NC(=O)/C(C)=C\C=C\[C@H](C)[C@H](O)[C@@H](C)[C@@H](O)[C@@H](C)[C@H](OC(C)=O)[C@@H]1C` [Rifampicin, rifampicin]?
A: MIC in combination (rifampicin) ([1]; E. coli mcr-1, rifampicin in combination with PMBN (4 µg/mL)): 1 µg/mL; MIC in combination (rifampicin) ([1]; E. coli mcr-1, rifampicin in combination with PmxB4 (1 µg/mL)): 0.3 µg/mL; MIC in combination (rifampicin) ([1]; E. coli mcr-1, rifampicin in combination with ent-PMBN (32 µg/mL)): 2 µg/mL; MIC in combination (rifampicin) ([1]; E. coli mcr-1, rifampicin in combination with ent-PmxB4 (8 µg/mL)): 1 µg/mL; MIC ([1]; Escherichia coli, read-out: MIC alone): 8 µg/mL; MIC alone [2, 7]: 8 µg/mL; MIC in combination (rifampicin) ([2]; E. coli ATCC 25922, rifampicin in combination with PMBN (2 µg/mL)): 0.1 µg/mL; MIC in combination (rifampicin) ([2]; E. coli ATCC 25922, rifampicin in combination with PmxB4 (1 µg/mL)): 0.5 µg/mL; MIC in combination (rifampicin) ([2]; E. coli ATCC 25922, rifampicin in combination with ent-PMBN (32 µg/mL)): 2 µg/mL; MIC in combination (rifampicin) ([2]; E. coli ATCC 25922, rifampicin in combination with ent-PmxB4 (8 µg/mL)): 0.1 µg/mL; MIC ([2]; Escherichia coli, ATCC25922, E. coli ATCC 25922, checkerboard, substance alone): 8 µg/mL
